This note sets out measurements from patent US20230255904A1, “PHARMACEUTICAL COMPOSITION FOR PREVENTING OR TREATING CANCER COMPRISING NAPHTHOQUINONE-BASED COMPOUND AND IMMUNE CHECKPOINT INHIBITOR AS ACTIVE INGREDIENTS” (NADIANBIO LTD., priority 2020, published 2023).

One experiment has as its system RENCA. As to the kind of experiment: Tumor growth inhibition, animal model for renal cancer (RENCA). In kind it is in vivo, BALB/c mice. The settings on record: Dunnione 40 mg/kg oral every day from 7th day. The protocol:
(§1) All mice used in the experiments were raised in a sterile animal room with constant temperature (22° C. to 26° C.) and constant humidity (55% to 60%), acclimatized for 1 week while sufficiently supplying typical solid feed (Samtako Inc., Korea) and water, and then used. All experiments were conducted after obtaining approval from the Institutional Animal Care and Use Committee in accordance with the laboratory animal care and ethics regulations of the Institutional Animal Care and Use Committee of Wonkwang University.
(§2) 7-week-old BALB/c or C57BL/6 mice were used, and subcutaneously inoculated using a 1-mL insulin syringe within 30 minutes after mixing the mouse cancer cells with 0.2 mL of PBS.
(§3) After the cancer cell line was subcutaneously implanted, the administration of drugs was started when the size of the cancer reached 50 to 100 mm^3. The volumes (mm^3) of the tumors, which were generated after the inoculation, were measured at intervals of 3 days using a caliper, calculation was performed using the formula of […], and then the results thereof were compared.
(§4) In addition, sole administration or co-administration of respective drugs was performed according to the administration schedules listed in Tables 4 to 34 below, the tumor volumes were then measured according to the tumor proliferation assessment method described in Example 1.1, the tumor growth inhibition rates (TGI (O)=(Vc−Vt)/Vc×100(%); Vc: tumor volume of control, Vt tumor volume of experimental group) were calculated based the tumor volumes, and the results thereof are shown in the respective tables and FIGS. 1 to 31.

The test system of the next experiment is calreticulin (ecto-CRT). In words: Immunogenic cell death analysis: calreticulin on the surface of tumor cells by flow cytometry. The settings on record: compared to the control. In kind it is cell-based. The protocol: Calreticulin is one of the most important molecules in the immunogenic cell death process. When the calreticulin appears on membranes of tumor cell, a strong signal for phagocytotic cells including dendritic cells may be generated to cause the phagocytotic cells to attack dying tumor cells. This is the most significant “eat me” signal for immune cells. Whether or not immunogenic cell death was induced by the anticancer agents used in the present invention was assessed through the quantitative change of calreticulin expressed on the surface of cancer cells after the treatment with the anticancer agents. Single cells isolated from the tumor were incubated with anti-calreticulin antibody (ratio of 1:50) as a primary antibody at 4° C. for 30 minutes, and then washed 2 times with PBS.
A general note: A flow cytometer gives signals particle by particle.

A further experiment relates to 4T1. As to the kind of experiment: Tumor growth inhibition, animal model for breast cancer I (4T1). The settings on record: Experimental Example 10; Dunnione 40 mg/kg oral every day from 5th day; Anti-CTLA4 antibody 200 μg/head i.p. at intervals of 3 days from 5th day, 4 times; Mitoxantrone 6 mg/kg i.p. once on 5th day. The experiment is classed as in vivo, BALB/c mice. As to the method: as §1, §2, §3, §4

A further experiment relates to B16F10. In words: Tumor growth inhibition, animal model for skin cancer (B16F10). In kind it is in vivo,  mice. The settings on record: Experimental Example 26; Dunnione 40 mg/kg oral every day from 8th day; Everolimus 0.5 mg/kg oral every day from 8th day. The protocol:
as §1, §2, §3, §4

In another experiment the test system is MC38. In words: Tumor growth inhibition, animal model for colorectal cancer I (MC38). In kind it is in vivo, C57BL/6 mice. The settings on record: Experimental Example 4; Dunnione 40 mg/kg oral every day from 7th day; Anti-LAG3 antibody 200 μg/head i.p. on 7th, 10th, 14th, 17th days; Oxaliplatin 6 mg/kg i.p. on 7th and 14th days. As to the method: as §1, §2, §3, §4

On to `CNC(=O)c1cc(Oc2ccc(NC(=O)Nc3ccc(Cl)c(C(F)(F)F)c3)cc2)ccn1` [Sorafenib, reference compound], for which the “TGI (%)” value with RENCA (Experimental Example 16, Sorafenib 10 mg/kg oral every day from 7th day) is recorded as 29.4%. Moreover, in the experiment with calreticulin (ecto-CRT) (Liver cancer, Hapa1-6), the “Expression rate (%) of calreticulin on cell surface” value (“Expression rate (%) of calreticulin” below) was found to be 435%.
As to `CCN1CCN(Cc2ccc(Nc3ncc(F)c(-c4cc(F)c5nc(C)n(C(C)C)c5c4)n3)nc2)CC1` [Abemaciclib], in the experiment on calreticulin (ecto-CRT) (Breast cancer, EMT6), the “Expression rate (%) of calreticulin” value is 263%.
`O=C1c2c(O)ccc(O)c2C(=O)c2c(NCCNCCO)ccc(NCCNCCO)c21` [Mitoxantrone, reference compound]: the “TGI (%)” value in the experiment with 4T1 worked out at 16.3%. Moreover, the “Expression rate (%) of calreticulin” value in the experiment on calreticulin (ecto-CRT) (Breast cancer, 4T1) was determined as 385%.
In the case of `CC(=O)O[C@H]1C(=O)[C@@]2(C)[C@H]([C@H](OC(=O)c3ccccc3)[C@]3(O)C[C@H](OC(=O)[C@H](O)[C@@H](NC(=O)c4ccccc4)c4ccccc4)C(C)=C1C3(C)C)[C@]1(OC(C)=O)CO[C@@H]1C[C@@H]2O` [Paclitaxel], in the experiment with calreticulin (ecto-CRT) (Skin cancer (melanoma), B16F10), the “Expression rate (%) of calreticulin” value is 186%.
`CO[C@H]1C[C@@H]2CC[C@@H](C)[C@@](O)(O2)C(=O)C(=O)N2CCCC[C@H]2C(=O)O[C@H]([C@H](C)C[C@@H]2CC[C@@H](OCCO)[C@H](OC)C2)CC(=O)[C@H](C)/C=C(\C)[C@@H](O)[C@@H](OC)C(=O)[C@H](C)C[C@H](C)/C=C/C=C/C=C/1C` [Everolimus, reference compound]: the “TGI (%)” value with RENCA (Experimental Example 15, Anti-CTLA4 antibody 200 μg/head i.p. at intervals of 3 days from 7th day, 7 times, Everolimus 250 μg/kg oral every day from 7th day) was found to be 72.8%; in the experiment with B16F10, 28.5%. The “Expression rate (%) of calreticulin” value with calreticulin (ecto-CRT) (Liver cancer, Hapa1-6) came to 892%; in the experiment with calreticulin (ecto-CRT) (Renal cancer, RENCA), 134%; in the experiment with calreticulin (ecto-CRT) (Skin cancer (melanoma), B16F10), 216%.
As to `COc1cccc2c1C(=O)c1c(O)c3c(c(O)c1C2=O)C[C@@](O)(C(=O)CO)C[C@@H]3O[C@H]1C[C@H](N)[C@H](O)[C@H](C)O1` [Adriamycin], in the experiment on calreticulin (ecto-CRT) (Breast cancer, 4T1), the “Expression rate (%) of calreticulin” value stood at 307%.
Consider `O=C1[O][Pt]2([NH][C@@H]3CCCC[C@H]3[NH]2)[O]C1=O` [Oxaliplatin, reference compound], for which the “TGI (%)” value in the experiment with MC38 worked out at 5.6%.
Consider `CNC(=O)c1cc(Oc2ccc(NC(=O)Nc3ccc(Cl)c(C(F)(F)F)c3)c(F)c2)ccn1` [Regorafenib], for which the “Expression rate (%) of calreticulin” value is on record as 134% in the experiment with calreticulin (ecto-CRT) (Colorectal cancer, MC38) and 166% with calreticulin (ecto-CRT) (Skin cancer (melanoma), B16F10).
For `CNC(=O)c1cccc(-c2ccc3c(N4CCOC[C@@H]4C)nc(N4CCOC[C@@H]4C)nc3n2)c1` [Vistusertib], the “Expression rate (%) of calreticulin” value in the experiment on calreticulin (ecto-CRT) (Colorectal cancer, MC38) was 175%; in the experiment with calreticulin (ecto-CRT) (Renal cancer, RENCA), 341%; in the experiment with calreticulin (ecto-CRT) (Skin cancer (melanoma), B16F10), 145%.
